{
  "source": "patent US7704723B2",
  "about": "“Isolation and characterization of novel clostridial species” (The Board of Regents For Oklahoma State University, priority 2006, dated 2010)",
  "key": {"strain P11 [1]": {"system": "strain P11", "experiment": "Trace metals elimination (0x) and addition (10x) in CO medium", "format": "cell-based, Clostridium ragsdalei", "details": "for Acetate production on elimination of the metal / CO metabolism on elimination of the metal / Increase in solvent to acid ratio on elimination of the metal: 0x metal in COM; for CO metabolism at increased level of the metal: 10x metal in COM, especially after a 48 hour feeding", "protocol": "Bacterial Strain and Cultivation Media. Clostridial strain P11 was used throughout the study. […] The growth temperature was 37° C. […] Analytical methods. […] Milton Roy) in aluminum seal tubes (Balch & Wolfe, 1976). […] Hydrogen ion concentration was measured by electrode. Trace metals. […] Triplicate tubes of unamended (1×) and amended (0× and 10×) media were inoculated with strain P11 where each of these individual trace metals were added to or eliminated from the COM at 10× and 0× the original metal concentration. The cultures were fed every 48 hours with CO. This was also completed in duplicate in 160 mL serum bottles to simulate small scale batch conditions. Stock solutions were prepared for each of the above metals and added during the media preparation before boiling and degassing. […] In order to adapt cells to the higher concentrations of metals, at least 2 transfers were made for each set-up. This experiment was performed in triplicate and growth was measured over 7 days after which pH and ethanol concentration analyses were completed."}, "[2]": {"system": "Clostridium ragsdalei strain P11", "experiment": "Growth of strain P11 on organic and gaseous substrates as sole carbon and energy sources", "format": "cell-based", "details": "Clostridium ragsdalei; malate and formate examined at pH 5.0-6.5", "protocol": "Except for the deletion of NaHCO3 and an initial pH 6.3, growth on organic and gaseous substrates was performed as previously described (Tanner et. al., 1993). Resazurin (1 mg/L) was used as the redox indicator. Purified agar was added to the medium at a concentration of 2% for colony morphology description (Table 5). Heat labile substrates were filter sterilized (not autoclaved) and added from sterile stock solutions to a final concentration of 5 g/L before inoculation. The optimum temperature and pH (initial pH) was determined in medium containing fructose as the substrate. For determination of the optimum pH, media was buffered with HOMOPIPES (homopiperazine-N,N′-bis-2-[ethanesulfonic acid] (Research Organics, Cleveland, Ohio), MES (2-[N-morpholino]ethanesulfonic acid), or TES (N-tris [hydroxymethyl]methyl-2-aminoethanesulfonic acid) at (1.0 g/L). A 0.1 ml (˜2%) inoculum of fructose-grown cells was used to initiate growth. All media components used in these experiments were obtained from Sigma unless otherwise noted (Sigma Chemical Co., St. Louis, Mo.).\nAnalytical methods. […] For the substrate malate, utilization was analyzed by HPLC (“high-performance liquid chromatography”) equipped with a UV detector set at 214 nm using a Alltech, Prevail Organic Acid column (4.6×150 mm, 5 μm; Alltech, Deerfield, Mich.) with a mobile phase of 25 mM KH2PO4, pH 2.5 and 10% (v/v) methanol."}, "strain P11 [3]": {"system": "strain P11", "experiment": "microbe, parasite or virus in culture", "protocol": "(§1) Bacterial Strain and Cultivation Media. Clostridial strain P11 was used throughout the study. Carbon monoxide medium (COM) was used to cultivate and maintain the culture. The growth temperature was 37° C. COM is an undefined buffered medium initially pressurized to 10 psi (70 kPa) with N2/CO2 and then autoclaved for 15 minutes at 121° C. The medium contained per liter of distilled water: 25 ml mineral solution (Table 1), 10 ml trace metals solution (Table 2, 10 ml vitamin solution (Table 3), 1.0 g of yeast extract, 10 g of MES (2-[N-morpholino]ethanesulfonic acid), 0.001 g resazurin, 4.0 g cysteine.HCl, and 4.0 Na2S.9H2O; the initial pH of this medium was 6.1-6.3. The medium was prepared using strict anaerobic technique (Balch & Wolfe, 1976). Carbon monoxide was the sole substrate provided at 210 kPa (30 psi). Unless otherwise noted all growth experiments were conducted under a pressure of 30 psi with CO as the sole or primary substrate and were incubated horizontally to maximize gas diffusion into the medium. Standard inoculum size was about 2% (v/v) transferred from a stock culture that was growing in mid to late exponential phase, unless otherwise noted.\n(§2) Analytical methods. Growth was measured spectrophotometrically at 600 nm (Spectronic 20D; Milton Roy) in aluminum seal tubes (Balch & Wolfe, 1976). Acetate and ethanol were measured simultaneously by a gas chromatograph (GC) equipped with a flame ionization detector (FID) on a Varian 3400 equipped with a 2 m steel column packed with an 80/120 Carbopak B-DA/4% carbowax resin 20M (Supelco, Bellfonte, Pa.). The column, injector, and detector temperature were 155, 200, and 200° C. respectively. Helium was the carrier gas and the flow rate was set at 30 ml min^−1. Hydrogen ion concentration was measured by electrode.\nEthanol tolerance. The effect of ethanol on CO metabolism and solvent production was investigated with strain P11. The initial maximum concentration at which strain P11 could survive was determined during the course of these studies. […] Liquid samples (1.0 mL) were extracted once the cells remained at stationary phase and stored frozen (−20° C.) until analyzed by GC and HPLC. After the maximum ethanol concentration for cell survival was determined semi-continuous batch culture experiments were conducted using 500 mL serum bottles containing between 100-200 mL of COM containing different concentrations of ethanol (20, 30, 40, and 50 g/L) to adapt strain P11 to high solvent conditions. The amended COM with ethanol was prepared by adding filter sterilized ethanol to pre-sterilized Balch tubes, and then purging with N/CO2 to remove oxygen. After the media was sterilized, the ethanol was then added to the appropriate concentrations. These bottles were inoculated with the P11 cells from the semi-continuous batch cultures that were already established above. Growth and pH were measured periodically. A portion of the medium extracted for those measurements was taken for analyses of ethanol and acetate concentrations."}, "strain P11 [4]": {"system": "strain P11", "experiment": "Metabolic inhibitor studies (FA/TFA) in CO medium", "format": "cell-based, Clostridium ragsdalei", "details": "for Ethanol production compared to the control strains: P11 in the presence of the inhibitor, identical conditions", "protocol": "as §1, §2\nMetabolic Inhibitor Studies. Filter sterilized anaerobic stock solutions of fluoroacetate (FA) and trifluoroacetate (TFA) (Sigma Chemical Co.) were prepared to final concentrations of 4.5M. Before preparation, the FA and TFA powders were allowed to sit overnight in small beakers in the anaerobic chamber to allow any trapped oxygen to diffuse from the powder. […] The inhibitors were usually added to the medium one day prior to inoculating with P11 to ensure anaerobicity was maintained. All additions were made anaerobically by syringe. During this study growth was measured periodically by spectroscopy. Toward the end of resting cell phase, liquid samples (1 mL) were taken and stored frozen (−20° C.) until analyzed by GC and HPLC."}, "thermophilic clostridium": {"system": "thermophilic clostridium", "details": "cited from earlier work"}, "[5]": {"details": "iron increased tenfold compared to standard medium"}},
  "note": "Structures can show the parent of a compound that is named as a salt.",
  "data": [
    {"molecule": "[Cu]", "note": "[Cu, copper]", "values": [
      {"measurement": "Acetate production on elimination of the metal", "setting": "strain P11 [1]", "value": "decreased acetate production"},
      {"measurement": "CO metabolism on elimination of the metal", "setting": "strain P11 [1]", "value": "limited CO metabolism"},
      {"measurement": "CO metabolism at increased level of the metal", "setting": "strain P11 [1]", "value": "stimulated CO metabolism"}
    ]},
    {"molecule": "CCO", "note": "[Ethanol]", "values": [
      {"measurement": "Growth with substrate", "setting": "[2]", "value": "chemoorganotrophic growth was observed"},
      {"measurement": "MIC", "setting": "strain P11 [3]; Clostridium ragsdalei, P11, read-out: Minimum inhibitory concentration", "value": 35, "unit": "mg/mL"},
      {"measurement": "Growth at the 50 g/L ethanol concentration", "setting": "strain P11 [3]; adapted semi-continuous batch culture", "value": "≤ 0.55", "unit": "OD units"},
      {"measurement": "Growth relative to the unamended control without ethanol", "setting": "strain P11 [3]; all ethanol concentrations, 15-35 g/L", "value": "Growth was retarded"},
      {"measurement": "Ethanol concentration at which the adapted culture functions fully", "setting": "strain P11 [3]; culture adapted to ethanol", "value": 50, "unit": "grams per liter"},
      {"measurement": "Highest ethanol concentration at which the adapted culture was established", "setting": "strain P11 [3]; semi-continuous batch culture, stepwise adaptation from 20 g/L", "value": 50, "unit": "g/L"},
      {"measurement": "Ethanol concentration in which P11 remains viable and will grow", "setting": "strain P11 [3]; statement in the description", "value": "at least 60 g/L"},
      {"measurement": "Ethanol concentration initially tolerated", "setting": "strain P11 [3]; strain P11, not adapted", "value": "up to 30 g/L"},
      {"measurement": "Ethanol concentration that inhibited strain P11", "setting": "strain P11 [3]; upon initial isolation", "value": 30, "unit": "grams per liter"}
    ]},
    {"molecule": "O=C(O)CF", "note": "[FA, fluoroacetate]", "values": [
      {"measurement": "Decrease of acetate production", "setting": "strain P11 [4]; 30 mM FA and above", "value": "nearly ninety percent"},
      {"measurement": "Decrease of ethanol production", "setting": "strain P11 [4]; 30 mM FA and above", "value": "fifty"},
      {"measurement": "Decrease of growth yield", "setting": "strain P11 [4]; 30 mM FA and above", "value": "forty percent"},
      {"measurement": "Increase of ethanol to acetate ratio", "setting": "strain P11 [4]; 30 mM FA and above", "value": "eighty percent"},
      {"measurement": "Growth yield (OD) or end products relative to the P11 control", "setting": "strain P11 [4]; COM containing 20 mM FA", "value": "no significant differences"},
      {"measurement": "MIC", "setting": "strain P11 [4]; Clostridium ragsdalei, strain P11 in COM, CO substrate, read-out: MIC (minimum inhibitory concentration)", "value": 100, "unit": "mM"},
      {"measurement": "Ethanol production compared to the control strains", "setting": "strain P11 [4]", "value": "increase of ethanol production"},
      {"measurement": "Acetate", "setting": "strain P11 [4]; P11 with 15 mM FA", "value": 48.72, "unit": "mM"},
      {"measurement": "Ethanol", "setting": "strain P11 [4]; P11 with 15 mM FA", "value": 39.62, "unit": "mM"},
      {"measurement": "Final OD 600", "setting": "strain P11 [4]; P11 with 15 mM FA", "value": 0.741},
      {"measurement": "Concentration shown to inhibit growth", "setting": "thermophilic clostridium", "value": 50, "unit": "mM"}
    ]},
    {"molecule": "[Mo]", "note": "[Mo, molybdenum]", "values": [
      {"measurement": "Acetate production on elimination of the metal", "setting": "strain P11 [1]", "value": "increased acetate production"},
      {"measurement": "CO metabolism on elimination of the metal", "setting": "strain P11 [1]", "value": "CO metabolism increased slightly"},
      {"measurement": "CO metabolism at increased level of the metal", "setting": "strain P11 [1]", "value": "stimulated CO metabolism"}
    ]},
    {"molecule": "[Ni]", "note": "[Ni, nickel]", "values": [
      {"measurement": "CO metabolism on elimination of the metal", "setting": "strain P11 [1]", "value": "limited CO metabolism"},
      {"measurement": "Increase in solvent to acid ratio on elimination of the metal", "setting": "strain P11 [1]", "value": "~400", "unit": "%"},
      {"measurement": "CO metabolism at increased level of the metal", "setting": "strain P11 [1]", "value": "stimulated CO metabolism"}
    ]},
    {"molecule": "O=C(O)C(F)(F)F", "note": "[TFA, trifluoroacetate]", "values": [
      {"measurement": "Growth yield", "setting": "strain P11 [4]; COM containing 30 mM TFA", "value": "remained unchanged"},
      {"measurement": "Increase in acetate produced", "setting": "strain P11 [4]; COM containing 30 mM TFA", "value": 52, "unit": "%"},
      {"measurement": "Increase in ethanol produced", "setting": "strain P11 [4]; COM containing 30 mM TFA", "value": 126, "unit": "%"},
      {"measurement": "Increase of solvent to acid ratio", "setting": "strain P11 [4]; COM containing 30 mM TFA", "value": 50, "unit": "%"},
      {"measurement": "Ethanol production compared to the control strains", "setting": "strain P11 [4]", "value": "increase of ethanol production"},
      {"measurement": "Acetate", "setting": "strain P11 [4]; P11 with 60 mM TFA", "value": 34.58, "unit": "mM"},
      {"measurement": "Ethanol", "setting": "strain P11 [4]; P11 with 60 mM TFA", "value": 45.60, "unit": "mM"},
      {"measurement": "Final OD 600", "setting": "strain P11 [4]; P11 with 60 mM TFA", "value": 0.641},
      {"measurement": "MIC (minimum inhibitory concentration)", "setting": "strain P11 [4]; strain P11 in COM, CO substrate", "value": 150, "unit": "mM"}
    ]},
    {"molecule": "Iron [Fe]", "values": [
      {"measurement": "CO metabolism on elimination of the metal", "setting": "strain P11 [1]", "value": "limited CO metabolism"},
      {"measurement": "Increase in solvent to acid ratio on elimination of the metal", "setting": "strain P11 [1]", "value": "~300", "unit": "%"},
      {"measurement": "CO metabolism at increased level of the metal", "setting": "strain P11 [1]", "value": "stimulated CO metabolism"},
      {"measurement": "Concentration of ethanol produced", "setting": "strain P11 [1]; [5]", "value": "doubles the concentration of ethanol produced"},
      {"measurement": "Production of acetic acid", "setting": "strain P11 [1]; [5]", "value": "decreasing the production of acetic acid"}
    ]}
  ]
}
